Several values for one entry are separate records, joined by “and”; a condition that tells them apart may be missing. Identical values can stand only once. Like-named read-outs stand apart in the source and are kept apart here.
Key:
[1] = tested on: SARS CoV-2 (USA_WA1/2020); assay: Cytopathic effect (CPE) assay; assay type: cell-based; conditions: Severe acute respiratory syndrome coronavirus 2, Vero C1008, 72 h
Vero-E6 = assay: Cytotoxicity counter screen (cell viability, CellTiter-Glo); assay type: cell-based
Experimental: Compound cytotoxicity was assessed in a BSL-2 counter screen as follows: Cell culture media (MEM, 1% Pen/Strep/GlutaMax, 1% HEPES, 2% HI FBS) was dispensed at 5 μl/well into ARPs and incubated at room temperature to allow for compound dissolution. Vero-E6 (selected for high ACE2 expression) was dispensed into assay plates at 4000 cells/well in 25 μl media. Assay plates were incubated for 72 h at 37 C, 5% CO2, 90% humidity. Then, 30 μl/well of CellTiter-Glo (Promega #G7573) was dispensed into the assay plate. Luminescence was read using a BMG PHERAstar plate reader following incubation at room temperature for 10 min to measure cell viability.

[2] = Pharmacokinetics in male hamsters, plasma and lung, IV 3 mg/kg or PO 30 mg/kg; conditions: for Kp at 0.083 h / Kp at 4 h / Kp at 2 h / Kp at 8 h / Kp at 0.5 h / Kp at 1 h / Kp at […]: Ratio (Lung/Plasma)
Experimental: Compound P3 was administered intravenously (3 mg/kg dosing in 20% HP-β-CD in water) or orally (30 mg/kg dosing in 20% HP-β-CD in water).

in vivo = conditions: C57BL/6, mouse, po, C57BL/6 mice; for AUC(0-inf): AUCInf; for AUC(0-inf) / AUC(0-t) / Cmax / Tmax: Compound P3 in plasma; for AUC(0-t): AUClast; for half-life: t1/2, Compound P3 in plasma
[3] = Kinetic solubility (Tier I ADME); conditions: kinetic from dmso stock
SARS-CoV-2 = conditions: EIDD-2801 250 mpk BID; Compound P3 60 mpk BID
Source text: EIDD-2801 (molnupiravir) was chosen as the positive control at 250 mpk BID oral dose.

[4] = Tolerability study in mice, 7 days QD, PK on the 7th day; conditions: 25, 50 and 100 mg/kg PO QD 7 days, C57BL/6J mice
[5] = Compound P3 IV 3 mg/kg, 0.083 h, individual animals, 3 mg/kg
[6] = Compound P3 IV 3 mg/kg, 4 h, individual animals, 3 mg/kg
[7] = Compound P3 IV 3 mg/kg, 8 h, individual animals, 3 mg/kg
[8] = Compound P3 IV 3 mg/kg, 24 h, individual animals, 3 mg/kg
[9] = Compound P3 PO 30 mg/kg, 0.5 h, individual animals, 30 mg/kg
[10] = Compound P3 PO 30 mg/kg, 1 h, individual animals, 30 mg/kg
[11] = Compound P3 PO 30 mg/kg, 2 h, individual animals, 30 mg/kg
[12] = Compound P3 PO 30 mg/kg, 4 h, individual animals, 30 mg/kg
[13] = Compound P3 PO 30 mg/kg, 8 h, individual animals, 30 mg/kg
[14] = Compound P3 intravenously or orally
[15] = Compound P3 in plasma, PO 50 mg/kg (PO_A), C57BL/6 mice, individual mice, 50 mg/kg
[16] = Compound P3 in plasma, PO 100 mg/kg (PO_B), C57BL/6 mice, individual mice, 100 mg/kg
[17] = 50 mg/kg, PO 50 mg/kg (PO_A), Mean n = 3
[18] = 50 mg/kg, PO 50 mg/kg (PO_A), individual mice
[19] = 100 mg/kg, PO 100 mg/kg (PO_B), Mean n = 3
[20] = 100 mg/kg, PO 100 mg/kg (PO_B), individual mice

Compound: O=C(Nc1ccc([N+](=O)[O-])cc1Cl)c1cc(Cl)ccc1OC(=O)N1CCNCC1 [Compound P3, 4-chloro-2-((2-chloro-4-nitrophenyl)carbamoyl)phenyl piperazine-1-carboxylate]
- IC50 [1]: 4.05 µM
- Emax ([1]; read-out: Efficacy CPE assay): 40.7%
- IC50 (Vero-E6; Chlorocebus sabaeus, Vero C1008, 72 h, read-out: IC50 (μM) cell viability): 7.21 µM
- Efficacy cell viability (Vero-E6; uninfected Vero-E6, 72 h, CellTiter-Glo): −99.8
- Lung [2, 5]: 15360 ng/g and 23120 ng/g
- Ratio (Lung/Plasma) [2, 5]: 36.0 and 31.0
- Lung [2, 6]: 1436 ng/g and 2904 ng/g and 1800 ng/g
- Ratio (Lung/Plasma) [2, 6]: 111 and 59.4
- Lung [2, 7]: 263 ng/g and 275 ng/g
- Ratio (Lung/Plasma) [2, 7]: 45.3 and 76.3 and 109
- plasma concentration ([2]; Compound P3 IV 3 mg/kg, 24 h, individual animals): BLOQ
- Lung [2, 8]: 8.44 ng/g and 3.59 ng/g
- lung concentration, Conc. (ng/mL) [2, 8]: BLOQ
- Lung [2, 9]: 113200 ng/g and 72400 ng/g and 33400 ng/g
- Ratio (Lung/Plasma) [2, 9]: 53.2 and 59.7
- Lung [2, 10]: 82400 ng/g and 105600 ng/g
- Ratio (Lung/Plasma) [2, 10]: 69.2 and 130
- Lung [2, 11]: 102000 ng/g and 74400 ng/g
- Ratio (Lung/Plasma) [2, 11]: 96.2 and 108
- Lung [2, 12]: 48800 ng/g and 65200 ng/g
- Ratio (Lung/Plasma) [2, 12]: 215 and 97.6 and 73.2
- Lung [2, 13]: 6800 ng/g and 2928 ng/g and 7080 ng/g
- Ratio (Lung/Plasma) [2, 13]: 191 and 311
- plasma concentration ([2]; Compound P3 PO 30 mg/kg, 24 h, individual animals): BLOQ
- Lung ([2]; Compound P3 PO 30 mg/kg, 24 h, individual animals, 30 mg/kg): 38.2 ng/g and 22.6 ng/g and 11.1 ng/g
- amount of active metabolite in lung tissue relative to plasma concentration [2, 14]: significantly higher amount of active metabolite in lung tissue
- overall concentration of active metabolite [2, 14]: provided a higher overall concentration of active metabolite
- concentration at 0.083 h ([2]; male, hamster, in vivo, iv, 3 mg/kg, Lung (ng/g), Compound P3 IV 3 mg/kg, 0.083 h, individual animals): 27400 ng/g
- concentration at 8 h ([2]; male, hamster, in vivo, iv, 3 mg/kg, Lung (ng/g), Compound P3 IV 3 mg/kg, 8 h, individual animals): 270 ng/g
- Kp at 0.083 h ([2]; male, hamster, in vivo, iv, 3 mg/kg, Compound P3 IV 3 mg/kg, 0.083 h, individual animals): 34.1
- Kp at 4 h ([2]; male, hamster, in vivo, iv, 3 mg/kg, Compound P3 IV 3 mg/kg, 4 h, individual animals): 68.4
- Kp at 0.083 h ([2]; male, hamster, in vivo, iv, 3 mg/kg, Mean, Compound P3 IV 3 mg/kg, 0.083 h): 33.7
- Kp at 2 h ([2]; male, hamster, in vivo, iv, 3 mg/kg, Mean, Compound P3 IV 3 mg/kg, 2 h): 81
- Kp at 4 h ([2]; male, hamster, in vivo, iv, 3 mg/kg, Mean, Compound P3 IV 3 mg/kg, 4 h): 80
- Kp at 8 h ([2]; male, hamster, in vivo, iv, 3 mg/kg, Mean, Compound P3 IV 3 mg/kg, 8 h): 77
- concentration at 1 h ([2]; male, hamster, in vivo, po, 30 mg/kg, Lung (ng/g), Compound P3 PO 30 mg/kg, 1 h, individual animals): 106000 ng/g
- concentration at 2 h ([2]; male, hamster, in vivo, po, 30 mg/kg, Lung (ng/g), Compound P3 PO 30 mg/kg, 2 h, individual animals): 67600 ng/g
- concentration at 4 h ([2]; male, hamster, in vivo, po, 30 mg/kg, Lung (ng/g), Compound P3 PO 30 mg/kg, 4 h, individual animals): 65600 ng/g
- Kp at 0.5 h ([2]; male, hamster, in vivo, po, 30 mg/kg, Compound P3 PO 30 mg/kg, 0.5 h, individual animals): 89.1
- Kp at 1 h ([2]; male, hamster, in vivo, po, 30 mg/kg, Compound P3 PO 30 mg/kg, 1 h, individual animals): 98.1
- Kp at 2 h ([2]; male, hamster, in vivo, po, 30 mg/kg, Compound P3 PO 30 mg/kg, 2 h, individual animals): 88.6
- Kp at 8 h ([2]; male, hamster, in vivo, po, 30 mg/kg, Compound P3 PO 30 mg/kg, 8 h, individual animals): 194
- Kp at […] ([2]; male, hamster, in vivo, po, 30 mg/kg, Compound P3 PO 30 mg/kg, individual animals): 34.8
- Kp at 0.5 h ([2]; male, hamster, in vivo, po, 30 mg/kg, Mean, Compound P3 PO 30 mg/kg, 0.5 h): 67.4
- Kp at 1 h ([2]; male, hamster, in vivo, po, 30 mg/kg, Mean, Compound P3 PO 30 mg/kg, 1 h): 99
- Kp at 2 h ([2]; male, hamster, in vivo, po, 30 mg/kg, Mean, Compound P3 PO 30 mg/kg, 2 h): 98
- Kp at 4 h ([2]; male, hamster, in vivo, po, 30 mg/kg, Mean, Compound P3 PO 30 mg/kg, 4 h): 129
- Kp at 8 h ([2]; male, hamster, in vivo, po, 30 mg/kg, Mean, Compound P3 PO 30 mg/kg, 8 h): 232
- Kp at […] ([2]; male, hamster, in vivo, po, 30 mg/kg, Mean, Compound P3 PO 30 mg/kg): 32.3
- AUC_% Extrap (Compound P3 in plasma, PO 50 mg/kg (PO_A), C57BL/6 mice, Mean n = 3): 33.5%
- AUClast [15]: 12332 ng·h/mL and 10489 ng·h/mL
- Cmax [15]: 1920 ng/mL and 1560 ng/mL
- Tmax [15]: 0.500 h
- t1/2 [15]: 3.70 h
- AUC_% Extrap (Compound P3 in plasma, PO 100 mg/kg (PO_B), C57BL/6 mice, Mean n = 3): 28.2%
- AUCInf [16]: 33619 ng·h/mL and 24577 ng·h/mL and 56087 ng·h/mL
- AUC_% Extrap [16]: 22.7% and 23.7% and 38.3%
- AUClast [16]: 18757 ng·h/mL and 34617 ng·h/mL
- Cmax [16]: 2340 ng/mL and 3880 ng/mL
- t1/2 [16]: 13.8 h and 19.8 h
- in vivo conversion to niclosamide (Compound P3 oral, mice): effectively converted in vivo to the active niclosamide
- plasma exposure of niclosamide vs that reported for oral niclosamide (oral Compound P3, mice): much improved plasma exposures of niclosamide
- AUC(0-inf) (in vivo; [17]): 88700 ng·h/mL
- AUC(0-t) (in vivo; [17]): 9730 ng·h/mL
- AUC(0-t) (in vivo; [18]): 6360 ng·h/mL
- Cmax (in vivo; [17]): 1460 ng/mL
- Cmax (in vivo; [18]): 1140 ng/mL
- half-life (in vivo; [17]): 4.14 h
- half-life (in vivo; [18]): 4.58 h
- Tmax (in vivo; [17]): 2 h
- AUC(0-inf) (in vivo; [19]): 38100 ng·h/mL
- AUC(0-t) (in vivo; [19]): 26400 ng·h/mL
- AUC(0-t) (in vivo; [20]): 26000 ng·h/mL
- Cmax (in vivo; [19]): 3060 ng/mL
- Cmax (in vivo; [20]): 2970 ng/mL
- half-life (in vivo; [19]): 15.3 h
- half-life (in vivo; [20]): 12.4 h
- Tmax (in vivo; [19]): 1 h
- Tmax (in vivo; [20]): 1 h
- solubility [3]: > 43 µg/mL
- IHC immunoreactivity staining in the right lung (SARS-CoV-2): lowered in severity
- body weight [4]: no dose dependent weight loss
- tolerability [4]: tolerable for the study period, with no gross findings
